Results taken from US11225481B2 (Centre national de la recherche scientifique, priority 2015, dated 2022).

What was measured:
[1] = biological target: T1, BRD4(BD1) (Homo sapiens, UniProt O60885); test: HTRF assay on robot-synthesised focused library (Example 4 bis); type: binding; settings: Table 2 bis; focused library without intermediary purification; read-out: HTRF (IC50, μM), effect on BRD4(BD1) activity
T1 construct: a BRD4(BD1) synthetic gene that includes a TEV cleavage site was purchased from LifeTechnology; made in house
Protocol: (§1) The Accelerator Synthetizer SLT100 allows the efficient synthesis of the focused library in 96 well plates that can be directly transferred to a Labcyte Access/Echo® Laboratory Workstation to assess the compounds for their ability to disrupt bromodmain/histone complexes using the homogeneous time-resolved fluorescence (HTRF®) technology (IC50 μM).
as §1, with “After” for “The Accelerator Synthetizer SLT100 allows”, “with the Accelerator Synthetizer SLT100, the focused library has been” for “that can be”, “μM, table 2bis).” for “μM).”

[2] = biological target: T1, BRD4(BD1); test: HTRF assay, disruption of bromodomain/histone peptide interaction; type: binding; settings: HTRF; mean ± SD of three experiments; Table 2; read-out: IC50 μM, effect on BRD4(BD1) activity
Protocol: HTRF assays were performed in white 384 Well Small Volume™ HiBase Polystyrene Microplates (Greiner) with a total working volume of 20 μL. Compounds were dispensed, with 200 nL per well (1% final DMSO), from a concentration stock of 1 mM in 100% DMSO and with serial DMSO dilutions, using a Mosquito Crystal pipetting robot platform (TTP labtech). The IC50 measurements were performed in triplicates (Table 2 and 3). All HTRF reagents were purchased from CisBio Bioassays and reconstituted according to the supplier protocols. For each assay 14.7 μL of mix 1 (protein+peptide) is added in the assay wells, containing previously dispensed inhibitors, according to the final concentration and buffer described in Table 4, using a Biomek NX MC pipetting robot (Beckman). Then, 5.1 μL of mix 2 (donnor+acceptor) is added. HTRF signals were measured, after a final incubation (overnight at room temperature), using a PHERAstar FS (BMG Labtech) with an excitation filter at 337 nm and fluorescence wavelength measurement at 620 and 665 nm, an integration delay of 60 μs and an integration time of 500 μs. Results were analyzed with a two-wavelengths signal ratio: [intensity (665 nm)/intensity (620 nm)]*10^4. Percentage of inhibition was calculated using the following equation: % inhibition=[(compound signal)−(min signal)]/[(max signal)−(min signal)]*100, where ‘max signal’ is the signal ratio with the compound vehicle alone (DMSO) and ‘min signal’ the signal ratio without peptide.
For Isothermal Titration Calorimetry (ITC) and crystallogenesis, BRD4(BD1) was produced and purified using a histidine tag affinity chromatography as described by Filipakopoulos et al.9 For these experiments, a pNIC28-BSA4 expression vector containing BRD4(BD1) and a Tobacco Etch Virus (TEV) protease cleavage site have kindly been provided by Stefan Knapp laboratory from the SGC at the University of Oxford. After size exclusion chromatography, the fractions presenting pure BRD4(BD1) after TEV cleavage of the histidine tag were pooled and concentrated to 25 mg/mL for crystallogenesis. For ITC assays, the protein was concentrated up to at 6 mg/mL and the DTT was removed using a buffer exchange column (PD10 from GE healthcare) equilibrated with 10 mM HEPES pH=7.5, 150 mM NaCl. For Homogeneous Time Resolved Fluorimetry (HTRF) experiments, a BRD4(BD1) synthetic gene that includes a TEV cleavage site was purchased from LifeTechnology in a pDONR transport vector before cloning into a pDESTTM15 expression vector for GST affinity purification. Protein production and purification was carried out using similar protocols and buffers as used for the His-BRD4(BD1) system. Purification was carried on GST affinity resin (Thermo Scientific) and reduced glutathione was used for protein release. GST-BRD4(BD1) was further purified by size exclusion chromatography on a Superdex 16/60 Hiload column (GE Healthcare) using 20 mM TRIS pH=8.0, 150 mM NaCl Buffer.

Structure (SMILES)	IC50 [1]	IC50 [2]
CCn1c(COc2ccc(-n3[nH]c(C(=O)O)cc3=O)nn2)nc2c1c(=O)[nH]c(=O)n2Cc1ccc(Cl)cc1 [Compound 69]	8.4 µM	–
CCn1cnc2c1c(=O)[nH]c(=O)n2C(C)C [Compound 5b]	–	52.5 µM
CCCCn1c(=O)[nH]c(=O)c2c1nc(CSc1n[nH]c(N)n1)n2CC [Compound 21b, 8-(5-Amino-1H-[1,2,4]triazol-3-ylsulfanylmethyl)-3-butyl-7-ethyl-3,7-dihydro-purine-2,6-dione]	–	89.1 µM
O=c1[nH]c(=O)n(Cc2ccc(Cl)cc2)c2nc(CO)[nH]c12 [Compound 17b]	–	> 100 µM
CCn1c(CSc2nc3ccc(C(=O)O)cc3o2)nc2c1c(=O)[nH]c(=O)n2Cc1ccc(Cl)cc1 [Compound 56]	13.2 µM	–
CCn1c(CSc2nc3cc(S(=O)(=O)N4CCOCC4)ccc3[nH]2)nc2c1c(=O)[nH]c(=O)n2Cc1ccc(Cl)cc1 [Compound 65]	32.7 µM	–
CCCCn1c(=O)[nH]c(=O)c2c1nc(CSc1nc3cc(C(=O)O)ccc3o1)n2CC [Compound 36]	3 µM	–
CCn1cnc2c1c(=O)[nH]c(=O)n2C [Compound 4c]	–	> 100 µM
CCn1c(COc2ccc(Nc3nc4ccccc4c(=O)[nH]3)cc2)nc2c1c(=O)[nH]c(=O)n2Cc1ccc(Cl)cc1 [Compound 76]	12.7 µM	–
CCCCc1c(C)nc2nc(SCc3nc4c(c(=O)[nH]c(=O)n4Cc4ccc(Cl)cc4)n3C)nn2c1C [Compound 27a]	–	100 µM
Nc1nc2nc[nH]c2c(=S)[nH]1 [Compound 2a]	–	> 100 µM
CCCCn1c(=O)[nH]c(=O)c2c1nc(Sc1nc3nc(C)cc(C)n3n1)n2CC [Compound 28b, 3-Butyl-8-(5,7-dimethyl-[1,2,4]triazolo[1,5-a]pyrimidin-2-ylsulfanyl)-7-ethyl-3,7-dihydro-purine-2,6-dione]	–	> 100 µM
O=c1[nH]c(=O)n(Cc2ccc(Cl)cc2)c2nc(Br)[nH]c12 [Compound 11c]	–	> 100 µM
CCn1c(Sc2nc3nc(C)cc(C)n3n2)nc2c1c(=O)[nH]c(=O)n2Cc1ccc(Cl)cc1 [Compound 29a]	–	> 100 µM
CCn1c(Br)nc2[nH]c(=O)[nH]c(=O)c21 [Compound 12a]	–	> 100 µM
CCn1cnc2c1c(=O)[nH]c(=O)n2Cc1ccc(Br)cc1 [Compound 6c]	–	2.6 µM
CCn1cnc2[nH]c(N)nc(=O)c21 [Compound 1c, 7-ethylguanine]	–	> 100 µM
O=c1[nH]c(=O)n(Cc2ccc(Cl)cc2)c2nc[nH]c12 [Compound 4a]	–	> 100 µM
Nc1nc2nc[nH]c2c(=O)[nH]1 [Compound 1a]	–	> 100 µM
O=c1[nH]c(=O)c2[nH]cnc2[nH]1 [Compound 2b, xanthine]	–	> 100 µM

Structure (SMILES)	IC50 [1]	IC50 [2]
Cn1cnc2[nH]c(=O)[nH]c(=O)c21 [Compound 2c]	–	> 100 µM
CCn1cnc2c1c(=O)[nH]c(=O)n2CC [Compound 5a]	–	70.3 µM
CCCCc1c(C)nc2nc(CSc3nc4c(c(=O)[nH]c(=O)n4Cc4ccc(Cl)cc4)n3CC)nn2c1C [Compound 31b]	–	59.6 µM
CCCCc1c(C)nc2nc(SCc3nc4c(c(=O)[nH]c(=O)n4Cc4ccc(Cl)cc4)n3CC(C)C)nn2c1C [Compound 28a]	–	> 100 µM
CCCCn1c(=O)[nH]c(=O)c2c1nc(CSc1nc3nc(CC)cc(CC)n3n1)n2CC [Compound 25b]	–	46.6 µM
CCCCn1c(=O)[nH]c(=O)c2[nH]c(CO)nc21 [Compound 17a, 3-Butyl-8-hydroxymethylxanthine]	–	> 100 µM
CCn1cnc2c1c(=O)[nH]c(=O)n2CC(C)C [Compound 5c]	–	> 100 µM
CCCCn1c(=O)[nH]c(=O)c2c1nc(S)n2CC [Compound 15a, 3-butyl-7-ethyl-8-mercaptoxanthine]	–	35.1 µM
CCCCc1c(C)nc2nc(CSc3nc4c(c(=O)[nH]c(=O)n4CCCC)n3CC)nn2c1C [Compound 32a, 3-Butyl-8-(6-butyl-5,7-dimethyl-[1,2,4]triazolo[1,5-a]pyrimidin-2-ylmethylsulfanyl)-7-ethyl-3,7-dihydro-purine-2,6-dione]	–	54 µM
CCCCn1c(=O)[nH]c(=O)c2c1nc(CSc1cc3ccccc3[nH]1)n2CC [Compound 23b]	–	> 100 µM
Cn1c(-c2ccc(Cl)cc2)nc2c1c(=O)[nH]c(=O)n2Cc1ccccc1 [Compound 10c]	–	> 100 µM
CCc1cc(CC)n2nc(Sc3nc4c(c(=O)[nH]c(=O)n4Cc4ccc(Cl)cc4)n3CC)nc2n1 [Compound 30a]	–	18.3 µM
CCCCn1c(=O)[nH]c(=O)c2c1nc(CSc1nc3nc(C)cc(C)n3n1)n2CC [Compound 24b]	–	69.6 µM
O=C(O)CCSc1nc2c([nH]1)c(=O)[nH]c(=O)n2Cc1ccc(F)cc1 [Compound 16a]	–	> 100 µM
CCCCn1c(=O)[nH]c(=O)c2c1nc(CO)n2CCC [Compound 18b]	–	> 100 µM
CCn1c(CSc2cc3ccccc3[nH]2)nc2c1c(=O)[nH]c(=O)n2Cc1ccc(Cl)cc1 [Compound 24a]	–	> 100 µM
CCn1c(SC)nc2c1c(=O)[nH]c(=O)n2C [Compound 15c]	–	100 µM
CCn1c(CSc2nc[nH]n2)nc2c1c(=O)[nH]c(=O)n2Cc1ccc(Cl)cc1 [Compound 21a]	–	45.6 µM
CC(C)Cn1cnc2[nH]c(=O)[nH]c(=O)c21 [Compound 3b]	–	> 100 µM
CCn1cnc2c1c(=O)[nH]c(=O)n2Cc1ccc(C(C)(C)C)cc1 [Compound 7b]	–	2.6 µM

Structure (SMILES)	IC50 [1]	IC50 [2]
CCCCn1c(=O)[nH]c(=O)c2c1nc(CCl)n2CC [Compound 19c, 3-butyl-8-chloromethyl-7-ethylxanthine]	–	> 100 µM
CCCCn1c(=O)[nH]c(=O)c2c1nc(CO)n2C [Compound 17c]	–	> 100 µM
CCCCn1c(NC(=O)OC(C)(C)C)nc(=O)c2c1ncn2CC [Compound 7c]	–	17.9 µM
CCn1c(CSc2nc3ccccc3[nH]2)nc2c1c(=O)[nH]c(=O)n2Cc1ccc(Cl)cc1 [Compound 23a]	–	> 100 µM
CCn1c(CO)nc2c1c(=O)[nH]c(=O)n2Cc1ccccc1 [Compound 18c]	–	> 100 µM
O=c1[nH]c(=O)c2[nH]c(Br)nc2[nH]1 [Compound 11b]	–	> 100 µM
CCn1cnc2c1c(=O)nc(NC(=O)OC(C)(C)C)n2Cc1ccc(Cl)cc1 [Compound 8a]	–	> 100 µM
CCCCn1c(=O)[nH]c(=O)c2c1nc(CSc1nc3ccccc3[nH]1)n2CC [Compound 22b]	–	> 100 µM
CCCCn1c(=O)[nH]c(=O)c2c1nc(Cl)n2CC [Compound 12c, 3-Butyl-8-chloro-7-ethylxanthine]	–	> 100 µM
CCCCn1c(N)nc(=O)c2c1ncn2CC [Compound 8c]	–	10.7 µM
CCn1cnc2[nH]c(=O)[nH]c(=O)c21 [Compound 3a, 7-Ethylxanthine]	–	> 100 µM
CCn1cnc2c1c(=O)nc(N)n2Cc1ccc(Cl)cc1 [Compound 9a]	–	> 100 µM
CCCCn1c(=O)[nH]c(=O)c2c1nc(CO)n2CC [Compound 18a, 3-Butyl-7-ethyl-8-hydroxymethylxanthine]	–	> 100 µM
CCn1c(Br)nc2c1c(=O)[nH]c(=O)n2Cc1ccc(Cl)cc1 [Compound 12b]	–	< 100 µM
CCCCc1c(C)nc2nc(Sc3nc4c(c(=O)[nH]c(=O)n4Cc4ccc(Cl)cc4)n3CC)nn2c1C [Compound 31a]	–	46.8 µM
CCn1c(CO)nc2c1c(=O)[nH]c(=O)n2Cc1ccc(Cl)cc1 [Compound 19a]	–	93.3 µM
CCn1cnc2c1c(=O)nc(NC(=O)OC(C)(C)C)n2C(=O)OC(C)(C)C [Compound 8b]	–	> 100 µM
CCn1c(S)nc2c1c(=O)[nH]c(=O)n2C [Compound 14c]	–	< 100 µM
CCn1cnc2[nH]c(NC(=O)OC(C)(C)C)nc(=O)c21 [Compound 3c]	–	> 100 µM
Cn1cnc2nc(N)[nH]c(=O)c21 [Compound 1b]	–	> 100 µM
